Test results taken from ChEMBL document CHEMBL5724806, “Unraveling interindividual differences and functional consequences of gut microbial metabolism of immunosuppressants” (2024).

Columns and labels:
Format in all cases: ADME
[1] = The drug is tested on Actinomyces naeslundi strain: DSM43013 for biotransformation under anaerobic condition. The drug concentrations were measured over 6 timepoints collected between 0 and 12 hours of incubation by liquid-chromatography-coupled mass spectrometry (LC–MS); design: dose 5 uM, timepoint 0, 1.5, 3, 6, 9, 12 hours; conditions: actinomyces naeslundii, 5 µM
[2] = The drug is tested on Bacteroides caccae strain: DSM19024 for biotransformation under anaerobic condition. The drug concentrations were measured over 6 timepoints collected between 0 and 12 hours of incubation by liquid-chromatography-coupled mass spectrometry (LC–MS); design: dose 5 uM, timepoint 0, 1.5, 3, 6, 9, 12 hours; conditions: 5 µM
[3] = The drug is tested on Bacteroides stercoris strain: HM 1036 for biotransformation under anaerobic condition. The drug concentrations were measured over 6 timepoints collected between 0 and 12 hours of incubation by liquid-chromatography-coupled mass spectrometry (LC–MS); design: dose 5 uM, timepoint 0, 1.5, 3, 6, 9, 12 hours; conditions: 5 µM
[4] = The drug is tested on Bacteroides thetaiotaomicron strain: DSM2079 for biotransformation under anaerobic condition. The drug concentrations were measured over 6 timepoints collected between 0 and 12 hours of incubation by liquid-chromatography-coupled mass spectrometry (LC–MS); design: dose 5 uM, timepoint 0, 1.5, 3, 6, 9, 12 hours; conditions: 5 µM
[5] = The drug is tested on Bacteroides xylanisolvens strain: HM 722 for biotransformation under anaerobic condition. The drug concentrations were measured over 6 timepoints collected between 0 and 12 hours of incubation by liquid-chromatography-coupled mass spectrometry (LC–MS); design: dose 5 uM, timepoint 0, 1.5, 3, 6, 9, 12 hours; conditions: 5 µM
[6] = The drug is tested on Parabacteroides merdae strain: DSM19495 for biotransformation under anaerobic condition. The drug concentrations were measured over 6 timepoints collected between 0 and 12 hours of incubation by liquid-chromatography-coupled mass spectrometry (LC–MS); design: dose 5 uM, timepoint 0, 1.5, 3, 6, 9, 12 hours; conditions: 5 µM
[7] = The drug is tested on Prevotella copri strain: DSM18205 for biotransformation under anaerobic condition. The drug concentrations were measured over 6 timepoints collected between 0 and 12 hours of incubation by liquid-chromatography-coupled mass spectrometry (LC–MS); design: dose 5 uM, timepoint 0, 1.5, 3, 6, 9, 12 hours; conditions: segatella copri, 5 µM
[8] = The drug is tested on Clostridium ramosum strain: DSM1402 for biotransformation under anaerobic condition. The drug concentrations were measured over 6 timepoints collected between 0 and 12 hours of incubation by liquid-chromatography-coupled mass spectrometry (LC–MS); design: dose 5 uM, timepoint 0, 1.5, 3, 6, 9, 12 hours; conditions: thomasclavelia ramosa, 5 µM
[9] = The drug is tested on Dorea formicigenerans strain: DSM3992 for biotransformation under anaerobic condition. The drug concentrations were measured over 6 timepoints collected between 0 and 12 hours of incubation by liquid-chromatography-coupled mass spectrometry (LC–MS); design: dose 5 uM, timepoint 0, 1.5, 3, 6, 9, 12 hours; conditions: 5 µM
[10] = The drug is tested on Gemella morbillorum strain: DSM20572 for biotransformation under anaerobic condition. The drug concentrations were measured over 6 timepoints collected between 0 and 12 hours of incubation by liquid-chromatography-coupled mass spectrometry (LC–MS); design: dose 5 uM, timepoint 0, 1.5, 3, 6, 9, 12 hours; conditions: 5 µM
[11] = The drug is tested on Lactobacillus fermentum strain: DSM20052 for biotransformation under anaerobic condition. The drug concentrations were measured over 6 timepoints collected between 0 and 12 hours of incubation by liquid-chromatography-coupled mass spectrometry (LC–MS); design: dose 5 uM, timepoint 0, 1.5, 3, 6, 9, 12 hours; conditions: limosilactobacillus fermentum, 5 µM
[12] = The drug is tested on Akkermansia muciniphila strain: DSM22959 for biotransformation under anaerobic condition. The drug concentrations were measured over 6 timepoints collected between 0 and 12 hours of incubation by liquid-chromatography-coupled mass spectrometry (LC–MS); design: dose 5 uM, timepoint 0, 1.5, 3, 6, 9, 12 hours; conditions: 5 µM
[13] = The drug is tested on Capnocytophaga ochracea strain: DSM7271 for biotransformation under microaerobic condition. The drug concentrations were measured over 6 timepoints collected between 0 and 12 hours of incubation by liquid-chromatography-coupled mass spectrometry (LC–MS); design: dose 5 uM, timepoint 0, 1.5, 3, 6, 9, 12 hours; conditions: 5 µM
[14] = The drug is tested on Gemella haemolysans strain: DSM107751 for biotransformation under microaerobic condition. The drug concentrations were measured over 6 timepoints collected between 0 and 12 hours of incubation by liquid-chromatography-coupled mass spectrometry (LC–MS); design: dose 5 uM, timepoint 0, 1.5, 3, 6, 9, 12 hours; conditions: 5 µM
[15] = The drug is tested on the gut metagenome community of A-02 with ENA study accession number: PRJEB31790 for biotransformation under anaerobic condition. The drug concentrations were measured over 7 timepoints collected between 0 and 12 hours of incubation by liquid-chromatography-coupled mass spectrometry (LC–MS); design: dose 5 uM, timepoint 0, 0.75, 1.5, 3, 6, 9, 12 hours; conditions: 5 µM
[16] = The drug is tested on the gut metagenome community of A-04 with ENA study accession number: PRJEB31790 for biotransformation under anaerobic condition. The drug concentrations were measured over 7 timepoints collected between 0 and 12 hours of incubation by liquid-chromatography-coupled mass spectrometry (LC–MS); design: dose 5 uM, timepoint 0, 0.75, 1.5, 3, 6, 9, 12 hours; conditions: 5 µM
[17] = The drug is tested on the gut metagenome community of A-05 with ENA study accession number: PRJEB31790 for biotransformation under anaerobic condition. The drug concentrations were measured over 7 timepoints collected between 0 and 12 hours of incubation by liquid-chromatography-coupled mass spectrometry (LC–MS); design: dose 5 uM, timepoint 0, 0.75, 1.5, 3, 6, 9, 12 hours; conditions: 5 µM
[18] = The drug is tested on the gut metagenome community of A-07 with ENA study accession number: PRJEB31790 for biotransformation under anaerobic condition. The drug concentrations were measured over 7 timepoints collected between 0 and 12 hours of incubation by liquid-chromatography-coupled mass spectrometry (LC–MS); design: dose 5 uM, timepoint 0, 0.75, 1.5, 3, 6, 9, 12 hours; conditions: 5 µM
[19] = The drug is tested on the gut metagenome community of P-01 with ENA study accession number: PRJEB31790 for biotransformation under anaerobic condition. The drug concentrations were measured over 7 timepoints collected between 0 and 12 hours of incubation by liquid-chromatography-coupled mass spectrometry (LC–MS); design: dose 5 uM, timepoint 0, 0.75, 1.5, 3, 6, 9, 12 hours; conditions: 5 µM
[20] = The drug is tested on the gut metagenome community of P-04 with ENA study accession number: PRJEB31790 for biotransformation under anaerobic condition. The drug concentrations were measured over 7 timepoints collected between 0 and 12 hours of incubation by liquid-chromatography-coupled mass spectrometry (LC–MS); design: dose 5 uM, timepoint 0, 0.75, 1.5, 3, 6, 9, 12 hours; conditions: 5 µM
[21] = The drug is tested on the gut metagenome community of A-01 with ENA study accession number: PRJEB31790 for biotransformation under microaerobic condition. The drug concentrations were measured over 7 timepoints collected between 0 and 12 hours of incubation by liquid-chromatography-coupled mass spectrometry (LC–MS); design: dose 5 uM, timepoint 0, 0.75, 1.5, 3, 6, 9, 12 hours; conditions: 5 µM
[22] = The drug is tested on the gut metagenome community of A-04 with ENA study accession number: PRJEB31790 for biotransformation under microaerobic condition. The drug concentrations were measured over 7 timepoints collected between 0 and 12 hours of incubation by liquid-chromatography-coupled mass spectrometry (LC–MS); design: dose 5 uM, timepoint 0, 0.75, 1.5, 3, 6, 9, 12 hours; conditions: 5 µM
[23] = The drug is tested on the gut metagenome community of A-07 with ENA study accession number: PRJEB31790 for biotransformation under microaerobic condition. The drug concentrations were measured over 7 timepoints collected between 0 and 12 hours of incubation by liquid-chromatography-coupled mass spectrometry (LC–MS); design: dose 5 uM, timepoint 0, 0.75, 1.5, 3, 6, 9, 12 hours; conditions: 5 µM
[24] = The drug is tested on the gut metagenome community of A-09 with ENA study accession number: PRJEB31790 for biotransformation under microaerobic condition. The drug concentrations were measured over 7 timepoints collected between 0 and 12 hours of incubation by liquid-chromatography-coupled mass spectrometry (LC–MS); design: dose 5 uM, timepoint 0, 0.75, 1.5, 3, 6, 9, 12 hours; conditions: 5 µM
[25] = The drug is tested on the gut metagenome community of A-10 with ENA study accession number: PRJEB31790 for biotransformation under microaerobic condition. The drug concentrations were measured over 7 timepoints collected between 0 and 12 hours of incubation by liquid-chromatography-coupled mass spectrometry (LC–MS); design: dose 5 uM, timepoint 0, 0.75, 1.5, 3, 6, 9, 12 hours; conditions: 5 µM

Row | SMILES | Bacterial Biotransformation [1] | Bacterial Biotransformation [2] | Bacterial Biotransformation [3] | Bacterial Biotransformation [4] | Bacterial Biotransformation [5] | Bacterial Biotransformation [6] | Bacterial Biotransformation [7] | Bacterial Biotransformation [8] | Bacterial Biotransformation [9] | Bacterial Biotransformation [10] | Bacterial Biotransformation [11] | Bacterial Biotransformation [12] | Bacterial Biotransformation [13] | Bacterial Biotransformation [14] | Bacterial Biotransformation [15] | Bacterial Biotransformation [16] | Bacterial Biotransformation [17] | Bacterial Biotransformation [18] | Bacterial Biotransformation [19] | Bacterial Biotransformation [20] | further results
1 | C[C@]12C=CC(=O)C=C1CC[C@@H]1[C@@H]2[C@@H](O)C[C@@]2(C)[C@H]1CC[C@]2(O)C(=O)CO [PREDNISOLONE] | Compound NOT metabolized | Compound NOT metabolized | Compound NOT metabolized | Compound NOT metabolized | Compound NOT metabolized | Compound NOT metabolized | Compound NOT metabolized | Compound NOT metabolized | Compound NOT metabolized | Compound NOT metabolized | Compound NOT metabolized | Compound NOT metabolized | Compound NOT metabolized | Compound NOT metabolized | Compound metabolized | Compound metabolized | Compound metabolized | Compound metabolized | Compound metabolized | Compound metabolized | Bacterial Biotransformation [21]: Compound metabolized; Bacterial Biotransformation [22]: Compound metabolized; Bacterial Biotransformation [23]: Compound metabolized; Bacterial Biotransformation [24]: Compound metabolized; Bacterial Biotransformation [25]: Compound metabolized
2 | C[C@]12C=CC(=O)C=C1CC[C@@H]1[C@@H]2C(=O)C[C@@]2(C)[C@H]1CC[C@]2(O)C(=O)CO [PREDNISONE] | Compound NOT metabolized | Compound NOT metabolized | Compound NOT metabolized | Compound NOT metabolized | Compound NOT metabolized | Compound NOT metabolized | Compound NOT metabolized | Compound NOT metabolized | Compound NOT metabolized | Compound NOT metabolized | Compound NOT metabolized | Compound metabolized | Compound NOT metabolized | Compound NOT metabolized | Compound metabolized | Compound metabolized | Compound metabolized | Compound metabolized | Compound metabolized | Compound metabolized | Bacterial Biotransformation [21]: Compound metabolized; Bacterial Biotransformation [22]: Compound metabolized; Bacterial Biotransformation [23]: Compound metabolized; Bacterial Biotransformation [24]: Compound metabolized; Bacterial Biotransformation [25]: Compound metabolized
3 | CNC(=C[N+](=O)[O-])NCCSCc1ccc(CN(C)C)o1 [RANITIDINE] | Compound NOT metabolized | Compound NOT metabolized | Compound NOT metabolized | Compound NOT metabolized | Compound metabolized | Compound NOT metabolized | Compound NOT metabolized | Compound NOT metabolized | Compound NOT metabolized | Compound NOT metabolized | Compound NOT metabolized | Compound NOT metabolized | Compound NOT metabolized | Compound NOT metabolized | Compound metabolized | Compound metabolized | Compound NOT metabolized | Compound NOT metabolized | Compound metabolized | Compound NOT metabolized | Bacterial Biotransformation [21]: Compound NOT metabolized; Bacterial Biotransformation [22]: Compound metabolized; Bacterial Biotransformation [23]: Compound metabolized; Bacterial Biotransformation [24]: Compound metabolized; Bacterial Biotransformation [25]: Compound NOT metabolized
